Data from US4443436A, “C-20-Modified macrolide derivatives of the macrolide antibiotics tylosin, desmycosin, macrocin, and lactenocin” (Eli Lilly and Company, priority 1982, dated 1984).
In brackets after ≈: the same amount, converted by molar mass. Where two headings read alike, the source gives them in different places.

Assays:
[1] = system: Streptococcus pyogenes C203; assay: MIC, standard agar-dilution assay, Streptococcus pyogenes C203; assay type: cell-based
[2] = system: Streptococcus pneumoniae Park I; assay: microbe, parasite or virus in culture; assay type: cell-based
[3] = system: Staphylococcus aureus V41; assay: MIC, standard agar-dilution assay, Staphylococcus aureus V41; assay type: cell-based
[4] = system: Staphylococcus epidermidis EPI2; assay: MIC, standard agar-dilution assay, Staphylococcus epidermidis EPI2; assay type: cell-based; details: Staphylococcus epidermidis EPI2, agar dilution
[5] = system: Streptococcus pyogenes C203; assay: In vivo protection of mice experimentally infected with S. pyogenes C203; details: mice, doses given 1 and 4 hours post-infection; for ED50: Streptococcus pyogenes
Protocol: The C-20 modified derivatives of this invention have shown in vivo antimicrobial activity against experimentally-induced infections in laboratory animals. When two doses of test compound were administered to mice experimentally infected with S. pyogenes C203, the activity observed was measured as an ED50 value [effective dose in mg/kg to protect 50% of the test animals: see Warren Wick, et al., J. Bacteriol. 81, 233-235 (1961)].

[6] = system: Mycoplasma hyorhinis; assay: MIC, broth-dilution microtiter test, Mycoplasma hyorhinis; assay type: cell-based; details: Mycoplasma hyorhinis, broth-dilution microtiter
From the text: (§1) The MIC's in Table X were obtained using conventional broth-dilution microtiter tests.

[7] = system: Staphylococcus aureus X1.1; assay: MIC, standard agar-dilution assay, Staphylococcus aureus X1.1; assay type: cell-based
[8] = system: Pasteurella multocida 60A; assay: MIC, broth-dilution microtiter test, Pasteurella multocida 60A; assay type: cell-based
From the text: as §1

[9] = system: Streptococcus Group D X66; assay: MIC, standard agar-dilution assay, Streptococcus Group D X66; assay type: cell-based
[10] = system: Mycoplasma hyopneumoniae; assay: MIC, broth-dilution microtiter test, Mycoplasma hyopneumoniae; assay type: cell-based
From the text: as §1

[11] = system: Mycoplasma synoviae; assay: MIC, broth-dilution microtiter test, Mycoplasma synoviae; assay type: cell-based
From the text: as §1

[12] = system: Streptococcus Group 9960; assay: MIC, standard agar-dilution assay, Streptococcus Group 9960; assay type: cell-based; details: Streptococcus Group 9960, agar dilution
[13] = system: Pasteurella hemolytica 22C; assay: MIC, broth-dilution microtiter test, Pasteurella hemolytica 22C; assay type: cell-based; details: Pasteurella hemolytica 22C, broth-dilution microtiter
From the text: as §1

[14] = system: Pasteurella multocida; assay: Oral (gavage) treatment of Pasteurella multocida-infected chicks; assay type: in vivo, one-day-old chicks
Protocol: Many of the C-20 modified derivatives of this invention have also shown in vivo antibacterial activity against infections induced by gram-negative bacteria. Tables XII and XIII summarize the results of tests in which illustrative compounds were evaluated against Pasteurella infection in one-day-old chicks. The compounds were administered parenterally or orally after challenge of the chicks with Pasteurella multocida (0.1 ml of a 10^-4 dilution of a twenty-hour tryptose broth culture of an avian P. multocida given subcutaneously). In these tests, unless indicated otherwise, all non-medicated infected chicks died within 24 hours of Pasteurella challenge. In the tests summarized in Table XII the compounds were administered by subcutaneous injection at a dosage of 30 mg/kg, 1 and 4 hours post-challenge of the chicks with P. multocida. In the test summarized in Table XIII the compounds were administered by gavage at 1 and 5 hours post-challenge of the chicks with P. multocida.

[15] = system: Staphylococcus aureus; assay: MIC, broth-dilution microtiter test, Staphylococcus aureus; assay type: cell-based; details: broth-dilution microtiter
From the text: as §1

[16] = system: Pasteurella multocida 17E; assay: MIC, broth-dilution microtiter test, Pasteurella multocida 17E; assay type: cell-based
From the text: as §1

[17] = system: Staphylococcus epidermidis EPI1; assay: MIC, standard agar-dilution assay, Staphylococcus epidermidis EPI1; assay type: cell-based
[18] = system: Staphylococcus aureus S13E; assay: MIC, standard agar-dilution assay, Staphylococcus aureus S13E; assay type: cell-based
[19] = system: Staphylococcus aureus X400; assay: MIC, standard agar-dilution assay, Staphylococcus aureus X400; assay type: cell-based
[20] = system: Streptococcus bovis 80; assay: MIC, broth-dilution microtiter test, Streptococcus bovis 80; assay type: cell-based
From the text: as §1

[21] = system: Mycoplasma gallisepticum; assay: MIC, broth-dilution microtiter test, Mycoplasma gallisepticum; assay type: cell-based; details: Mycoplasma gallisepticum, broth-dilution microtiter
From the text: as §1

[22] = system: Haemophilus influenzae R252; assay: MIC, standard agar-dilution assay, Haemophilus influenzae R252; assay type: cell-based
[23] = system: Haemophilus influenzae Holt; assay: MIC, standard agar-dilution assay, Haemophilus influenzae Holt; assay type: cell-based; details: Haemophilus influenzae Holt; ampicillin-sensitive strain; agar dilution
[24] = C203, sc, subcutaneous, read-out: ED50, Subcutaneous
[25] = C203, oral, read-out: ED50, Oral
[26] = Staphylococcus epidermidis, EPI1
[27] = Mycoplasmoides gallisepticum, read-out: MIC

Structure (SMILES): CCC1OC(=O)CC(O)C(C)C(OC2OC(C)C(O)C(N(C)C)C2O)C(CCSc2ccccc2)CC(C)C(=O)C=CC(C)=CC1COC1OC(C)C(O)C(OC)C1OC (stereo not shown) [Compound 23, 20-DH-DO-20-(phenylthio)desmycosin]
- MIC ([1]; Streptococcus pyogenes, C203): 0.25 mg/L (≈ 0.289 µM)
- MIC ([2]; Streptococcus pneumoniae Park I, agar dilution, read-out: MIC): 2 mg/L (≈ 2.31 µM)
- MIC ([3]; Staphylococcus aureus, V41): 0.25 mg/L (≈ 0.289 µM)
- MIC ([4]; read-out: MIC): 0.12 mg/L (≈ 0.139 µM)
- ED50 [5, 24]: 10 mg/kg
- ED50 [5, 25]: 17 mg/kg
- MIC ([6]; read-out: MIC): > 50 mg/L
- MIC ([7]; Staphylococcus aureus, X1.1): 0.25 mg/L (≈ 0.289 µM)
- MIC ([8]; Pasteurella multocida, 60A): 12.5 mg/L (≈ 14.4 µM)
- MIC ([9]; Streptococcus Group D X66, agar dilution, read-out: MIC): 8 mg/L (≈ 9.24 µM)
- MIC ([10]; Mesomycoplasma hyopneumoniae, Mycoplasma hyopneumoniae, broth-dilution microtiter, read-out: MIC): > 25 mg/L
- MIC ([11]; Mycoplasmopsis synoviae, Mycoplasma synoviae, broth-dilution microtiter, read-out: MIC): 6.25 mg/L (≈ 7.22 µM)
- MIC ([12]; GROUP9960, read-out: MIC): 16 mg/L (≈ 18.5 µM)
- MIC ([13]; read-out: MIC): 25 mg/L (≈ 28.9 µM)
- Number of Deaths/Number tested ([14]; 0.5 g/gal equivalent): 8/10
- Number of Deaths/Number tested ([14]; 1.0 g/gal equivalent): 10/10
- MIC ([15]; read-out: MIC): 0.19 mg/L (≈ 0.219 µM)
- MIC ([16]; Pasteurella multocida, 17E): 12.5 mg/L (≈ 14.4 µM)
- MIC [17, 26]: 0.25 mg/L (≈ 0.289 µM)
- MIC ([18]; Staphylococcus aureus, S13E): 0.25 mg/L (≈ 0.289 µM)
- MIC ([19]; Staphylococcus aureus, X400): 0.25 mg/L (≈ 0.289 µM)
- MIC ([20]; Streptococcus equinus, Streptococcus bovis 80, broth-dilution microtiter, read-out: MIC): 6.25 mg/L (≈ 7.22 µM)
- MIC [21, 27]: 0.09 mg/L (≈ 0.104 µM)

Structure (SMILES): CCC1OC(=O)CC(O)C(C)C(OC2OC(C)C(O)C(N(C)C)C2O)C(CCOc2ccc(OC)cc2)CC(C)C(=O)C=CC(C)=CC1COC1OC(C)C(O)C(OC)C1OC (stereo not shown) [Compound 35, 20-DH-20-O-(p-Methoxyphenyl)desmycosin]
- MIC ([1]; Streptococcus pyogenes, C203): 1 mg/L (≈ 1.14 µM)
- MIC ([2]; Streptococcus pneumoniae): 1 mg/L (≈ 1.14 µM)
- MIC ([3]; Staphylococcus aureus, V41): 0.25 mg/L (≈ 0.284 µM)
- MIC ([4]; read-out: MIC): 0.12 mg/L (≈ 0.136 µM)
- ED50 [5, 24]: 1.6 mg/kg
- ED50 [5, 25]: 11 mg/kg
- MIC ([6]; read-out: MIC): > 50 mg/L
- MIC ([7]; Staphylococcus aureus, X1.1): 0.25 mg/L (≈ 0.284 µM)
- MIC ([8]; Pasteurella multocida, 60A): 12.5 mg/L (≈ 14.2 µM)
- MIC [9]: 4 mg/L (≈ 4.55 µM)
- MIC ([10]; Mesomycoplasma hyopneumoniae): 6.25 mg/L (≈ 7.1 µM)
- MIC ([11]; Mycoplasmopsis synoviae): 0.78 mg/L (≈ 0.886 µM)
- MIC ([12]; GROUP9960, read-out: MIC): 8 mg/L (≈ 9.09 µM)
- MIC ([13]; read-out: MIC): 25 mg/L (≈ 28.4 µM)
- Number of Deaths/Number tested ([14]; 1.5 g/gal equivalent): 1/10
- Number of Deaths/Number tested ([14]; 2.0 g/gal equivalent): 4/10
- MIC ([15]; read-out: MIC): 0.39 mg/L (≈ 0.443 µM)
- MIC ([22]; Haemophilus influenzae, R252): 16 mg/L (≈ 18.2 µM)
- MIC ([16]; Pasteurella multocida, 17E): 12.5 mg/L (≈ 14.2 µM)
- MIC [17, 26]: 0.25 mg/L (≈ 0.284 µM)
- MIC ([18]; Staphylococcus aureus, S13E): 0.25 mg/L (≈ 0.284 µM)
- MIC ([19]; Staphylococcus aureus, X400): 0.25 mg/L (≈ 0.284 µM)
- MIC ([20]; Streptococcus equinus, 80): 1.56 mg/L (≈ 1.77 µM)
- MIC [21, 27]: 0.39 mg/L (≈ 0.443 µM)

Structure (SMILES): CCC1OC(=O)CC(O)C(C)C(OC2OC(C)C(O)C(N(C)C)C2O)C(CCOc2ccc(Oc3ccccc3)cc2)CC(C)C(=O)C=CC(C)=CC1COC1OC(C)C(O)C(OC)C1OC (stereo not shown) [Compound 47, 20-DH-20-O-(p-Phenoxyphenyl)desmycosin]
- MIC ([1]; Streptococcus pyogenes C203, agar dilution): 0.25 mg/L (≈ 0.265 µM)
- MIC ([2]; Streptococcus pneumoniae Park I, agar dilution): 0.25 mg/L (≈ 0.265 µM)
- MIC ([3]; Staphylococcus aureus V41, penicillin-resistant strain, agar dilution): 0.5 mg/L (≈ 0.531 µM)
- MIC [4]: 0.25 mg/L (≈ 0.265 µM)
- ED50, Oral ([5]; oral): 29 mg/kg × 2
- ED50, Subcutaneous ([5]; subcutaneous): > 10 mg/kg × 2
- MIC [6]: 6.25 mg/L (≈ 6.63 µM)
- MIC ([7]; Staphylococcus aureus X1.1, agar dilution): 0.5 mg/L (≈ 0.531 µM)
- MIC ([8]; Pasteurella multocida 60A, avian isolate, broth-dilution microtiter): 25 mg/L (≈ 26.5 µM)
- MIC ([9]; Streptococcus Group D X66, agar dilution): 0.5 mg/L (≈ 0.531 µM)
- MIC [23]: 16 mg/L (≈ 17 µM)
- MIC ([10]; Mycoplasma hyopneumoniae, broth-dilution microtiter): 3.12 mg/L (≈ 3.31 µM)
- MIC ([11]; Mycoplasma synoviae, broth-dilution microtiter): 0.09 mg/L (≈ 0.0955 µM)
- MIC [12]: 1 mg/L (≈ 1.06 µM)
- MIC [13]: 25 mg/L (≈ 26.5 µM)
- MIC [15]: 0.78 mg/L (≈ 0.828 µM)
- MIC ([22]; Haemophilus influenzae R252, ampicillin-resistant strain, agar dilution): 16 mg/L (≈ 17 µM)
- MIC ([16]; Pasteurella multocida 17E, bovine isolate, broth-dilution microtiter): 25 mg/L (≈ 26.5 µM)
- MIC ([17]; Staphylococcus epidermidis EPI1, agar dilution): 0.5 mg/L (≈ 0.531 µM)
- MIC ([18]; Staphylococcus aureus S13E, agar dilution): 0.25 mg/L (≈ 0.265 µM)
- MIC ([19]; Staphylococcus aureus X400, methicillin-resistant strain, agar dilution): 0.5 mg/L (≈ 0.531 µM)
- MIC ([20]; Streptococcus bovis 80, broth-dilution microtiter): 0.09 mg/L (≈ 0.0955 µM)
- MIC [21]: < 0.05 mg/L
